Laboratory results from patent US12630563B2, “Macrocyclic RIP2-kinase inhibitors” (Oncodesign S.A., priority 2020, dated 2026).

Molecular target: T1, recombinant hRIPK2 protein (kinase domain aa 1-299-His-tagged) (Homo sapiens, UniProt O43353)
T1 construct: kinase domain aa 1-299-His-tagged; purchased Life Technologies PR7829A
Assay: RIPK2 AlphaLISA assay (displacement of bead-bound CZC-8004 from hRIPK2)
Format: binding
Details: recombinant hRIPK2 kinase domain 10 nM, 2 h at 23° C.
Summary of the method: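 His-tagged kinase domain (10 nM, as diluted) was mixed with compound (0.8% DMSO), acceptor beads bearing the probe CZC-8004 and Ni2+ donor beads. After 2 h at 23 °C, AlphaLISA signal was read. Loss of signal reflects displacement of the probe from RIPK2.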

T1 sequence (O43353 1-299): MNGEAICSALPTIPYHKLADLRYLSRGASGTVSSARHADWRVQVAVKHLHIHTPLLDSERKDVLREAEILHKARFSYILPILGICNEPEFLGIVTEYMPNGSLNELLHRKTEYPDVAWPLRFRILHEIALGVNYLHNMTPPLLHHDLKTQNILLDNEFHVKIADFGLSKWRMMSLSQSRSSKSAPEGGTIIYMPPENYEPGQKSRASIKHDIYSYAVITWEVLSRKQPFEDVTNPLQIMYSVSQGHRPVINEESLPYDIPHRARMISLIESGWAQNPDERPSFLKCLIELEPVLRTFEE

| SMILES | IC50 [nM] |
| --- | --- |
| COCCO[C@@H]1C[C@H]2COc3nc4c(cnn4cc3OC)-c3cc(O)cc(c3)NCCN2C1=O [Example 128, (12R,14S)-4-hydroxy-18-methoxy-12-(2-methoxyethoxy)-16-oxa-7,10,20,21,24-pentaazapentacyclo[15.5.2. 1^2,6.0^10,^14.0^20,^23]pentacosa-1(23),2,4,6(25),17(24),18,21-heptaen-11-one] | < 10 |
| COCCO[C@@H]1C[C@H]2COc3nc4c(cnn4cc3OC)-c3cc(F)cc(c3)NCCN2C1=O [Example 129, (12R,14S)-4-fluoro-18-methoxy-12-(2-methoxyethoxy)-16-oxa-7,10,20,21,24-pentaazapentacyclo[15.5.2.1^2,6.0^10,^14.0^20,^23]pentacosa-1(23),2,4,6(25),17(24),18,21-heptaen-11-one] | < 10 |
| COCCO[C@@H]1C[C@H]2COc3nc4c(cnn4cc3OCC3CCO3)-c3cc(cc(OC)c3)NCCN2C1=O (stereo partly drawn) [Example 130, (12R,14S)-4-methoxy-12-(2-methoxyethoxy)-18-(oxetan-2-ylmethoxy)-16-oxa-7,10,20,21,24-pentaazapentacyclo[15.5.2. 1^2,6.0^10,^14.0^20,^23]pentacosa-1(23),2,4,6(25),17(24),18,21-heptaen-11-one] | < 10 |
| COCCO[C@@H]1C[C@H]2COc3nc4c(cnn4cc3OC)-c3cc(cc(OC(C)C)c3)NCCN2C1=O [Example 131, (12R,14S)-18-methoxy-12-(2-methoxyethoxy)-4-(propan-2-yloxy)-16-oxa-7,10,20,21,24-pentaazapentacyclo[15.5.2.1^2,6.0^10,^14.0^20,^23]pentacosa-1(23),2,4,6(25),17(24),18,21-heptaen-11-one] | < 10 |
| CCO[C@@H]1C[C@H]2COc3nc4c(cnn4cc3OC)-c3cc(cc(OC)c3)NCCN2C1=O [Example 132, (12R,14S)-12-ethoxy-4,18-dimethoxy-16-oxa-7,10,20,21,24-pentaazapentacyclo[15.5.2. 1^2,6.0^10,^14.0^20,^23]pentacosa-1(23),2,4,6(25),17(24),18,21-heptaen-11-one] | < 10 |
| COc1cc2cc(c1)-c1cnn3cc(OC)c(nc13)OC[C@@H]1C[C@@H](OC)C(=O)N1CCN2 [Example 133, (12R,14S)-4,12,18-trimethoxy-16-oxa-7,10,20,21,24-pentaazapentacyclo[15.5.2. 1^2,6.0^10,^14.0^20,^23]pentacosa-1(23),2,4,6(25),17(24),18, 21-heptaen-11-one] | < 10 |
| COc1cc2cc(c1)-c1cnn3cc(OC)c(nc13)OC[C@@H]1C[C@@H](OCC3COC3)C(=O)N1CCN2 [Example 134, (12R,14S)-4,18-dimethoxy-12-(oxetan-3-ylmethoxy)-16-oxa-7,10,20,21,24-pentaazapentacyclo[15.5.2. 1^2,6.0^10,^14.0^20,^23]pentacosa-1(23),2,4,6(25),17(24),18, 21-heptaen-11-one] | < 10 |
| COc1cc2cc(c1)-c1cnn3cc(OC)c(nc13)OC[C@@H]1C[C@@H](OCCN(C)C)C(=O)N1CCN2 [Example 135, (12R,14S)-12-[2-(dimethylamino)ethoxy]-4,18-dimethoxy-16-oxa-7,10,20,21,24-pentaazapentacyclo[15.5.2. 1^2,6.0^10,^14.0^20,^23]pentacosa-1(23),2,4,6(25),17(24),18, 21-heptaen-11-one] | < 10 |
| COCCO[C@@H]1C[C@H]2COc3nc4c(cnn4cc3OC3CC4(COC4)C3)-c3cc(cc(OC)c3)NCCN2C1=O [Example 136, (12R,14S)-4-methoxy-12-(2-methoxyethoxy)-18-{2-oxaspiro[3.3]heptan-6-yloxy}-16-oxa-7,10,20,21,24-pentaazapentacyclo[15.5.2. 1^2,6.0^10,^14.0^20,^23]pentacosa-1(23),2,4,6(25),17(24),18,21-heptaen-11-one] | < 10 |
| COCCO[C@@H]1C[C@H]2COc3nc4c(cnn4cc3OC3COC3)-c3cc(cc(OC)c3)NCCN2C1=O [Example 138, (12R,14S)-4-methoxy-12-(2-methoxyethoxy)-18-(oxetan-3-yloxy)-16-oxa-7,10,20,21,24-pentaazapentacyclo[15.5.2. 1^2,6.0^10,^14.0^20,^23]pentacosa-1(23),2,4,6(25),17(24),18,21-heptaen-11-one] | < 10 |
| [2H]C([2H])([2H])Oc1cc2cc(c1)-c1cnn3cc(OC)c(nc13)OC[C@@H]1C[C@@H](OCCOC)C(=O)N1CCN2 [Example 141, (12R,14S)-4-(^2H3)methoxy-18-methoxy-12-(2-methoxyethoxy)-16-oxa-7,10,20,21,24-pentaazapentacyclo[15.5.2.1^2,6.0^10,^14.0^20,^23]pentacosa-1(23),2,4,6(25),17(24),18,21-heptaen-11-one] | < 10 |
| COc1cc2cc(c1)-c1cnn3ccc(nc13)OC[C@@H]1C[C@@H](OC)C(=O)N1C(C)CN2 (stereo partly drawn) [Example 142, (12R,14S)-4,12-dimethoxy-9-methyl-16-oxa-7,10,20,21,24-pentaazapentacyclo[15.5.2.1^2,6.0^1°,^14.0^2°,^23]pentacosa-1(23),2(25),3,5,17(24),18,21-heptaen-11-one] | 10 to 100 |
| COc1cc2cc(c1)-c1cnn3cc(OC)c(nc13)OC[C@@H]1C[C@@H](O)C(=O)N1CCN2 [Example 143, (12R,14S)-12-hydroxy-4,18-dimethoxy-16-oxa-7,10,20,21,24-pentaazapentacyclo[15.5.2. 1^2,6.0^10,^14.0^20,^23]pentacosa-1(23),2(25),3,5,17(24),18,21-heptaen-11-one] | < 10 |
| COCCO[C@@H]1C[C@H]2COc3nc4c(cnn4cc3OC)-c3cc(C#N)cc(c3)NCCN2C1=O [Example 145, (12R,14S)-18-methoxy-12-(2-methoxyethoxy)-11-oxo-16-oxa-7,10,20,21,24-pentaazapentacyclo[15.5.2.1^2,6.0^10,^14.0^20,^23]pentacosa-1(23),2,4,6(25),17(24),18,21-heptaene-4-carbonitrile] | < 10 |
| C#Cc1cc2cc(c1)-c1cnn3cc(OC)c(nc13)OC[C@@H]1C[C@@H](OCCOC)C(=O)N1CCN2 [Example 146, (12R,14S)-4-ethynyl-18-methoxy-12-(2-methoxyethoxy)-16-oxa-7,10,20,21,24-pentaazapentacyclo[15.5.2.1^2,6.0^1°,^14.0^2°,^23]pentacosa-1(23),2,4,6(25),17(24),18,21-heptaen-11-one] | < 10 |

Second part, the molecule after the results:

| IC50 [nM] | SMILES |
| --- | --- |
| < 10 | COCCO[C@@H]1C[C@H]2COc3nc4c(cnn4cc3OCC3CC3)-c3cc(cc(OC)c3)NCCN2C1=O [Example 123, (12R,14S)-18-(cyclopropylmethoxy)-4-methoxy-12-(2-methoxyethoxy)-16-oxa-7,10,20,21,24-pentaazapentacyclo[15.5.2. 1^2,6.0^10,^14.0^20,^23]pentacosa-1(23),2(25),3,5,17(24),18,21-heptaen-11-one] |
| < 10 | CCOc1cn2ncc3c2nc1OC[C@@H]1C[C@@H](OCCOC)C(=O)N1CCNc1cc(OC)cc-3c1 [Example 124, (12R,14S)-18-ethoxy-4-methoxy-12-(2-methoxyethoxy)-16-oxa-7,10,20,21,24-pentaazapentacyclo[15.5.2. 1^2,6.0^10,^14.0^20,^23]pentacosa-1(23),2,4,6(25),17(24),18,21-heptaen-11-one] |
| < 10 | COCCO[C@@H]1C[C@H]2COc3nc4c(cnn4cc3OC(C)C)-c3cc(cc(OC)c3)NCCN2C1=O [Example 125, (12R,14S)-4-methoxy-12-(2-methoxyethoxy)-18-(propan-2-yloxy)-16-oxa-7,10,20,21,24-pentaazapentacyclo[15.5.2. 1^2,6.0^10,^14.0^20,^23]pentacosa-1(23),2,4,6(25),17(24),18,21-heptaen-11-one] |
| < 10 | COCCO[C@@H]1C[C@H]2COc3nc4c(cnn4cc3OCCN(C)C)-c3cc(cc(OC)c3)NCCN2C1=O [Example 126, (12R,14S)-18-[2-(dimethylamino)ethoxy]-4-methoxy-12-(2-methoxyethoxy)-16-oxa-7,10,20,21,24-pentaazapentacyclo[15.5.2. 1^2,6.0^10,^14.0^20,^23]pentacosa-1(23),2,4,6(25),17(24),18,21-heptaen-11-one] |
| < 10 | COCCO[C@@H]1C[C@H]2COc3nc4c(cnn4cc3OCCCN(C)C)-c3cc(cc(OC)c3)NCCN2C1=O [Example 127, (12R,14S)-18-[3-(dimethylamino)propoxy]-4-methoxy-12-(2-methoxyethoxy)-16-oxa-7,10,20,21,24-pentaazapentacyclo[15.5.2. 1^2,6.0^10,^14.0^20,^23]pentacosa-1(23),2,4,6(25),17(24),18,21-heptaen-11-one] |
| < 10 | COCCOc1cn2ncc3c2nc1OC[C@@H]1C[C@@H](OCCOC)C(=O)N1CCNc1cc(OC)cc-3c1 [Example 137, (12R,14S)-4-methoxy-12,18-bis(2-methoxyethoxy)-16-oxa-7,10,20,21,24-pentaazapentacyclo[15.5.2. 1^2,6.0^10,^14.0^20,^23]pentacosa-1(23),2,4,6(25),17(24),18,21-heptaen-11-one] |
| < 10 | COCCO[C@@H]1C[C@H]2COc3nc4c(cnn4cc3OCCO)-c3cc(cc(OC)c3)NCCN2C1=O [Example 139, (12R,14S)-18-(2-hydroxyethoxy)-4-methoxy-12-(2-methoxyethoxy)-16-oxa-7,10,20,21,24-pentaazapentacyclo[15.5.2.1^2,6.0^1°,^14.0^2°,^23]pentacosa-1(23),2,4,6(25),17(24),18,21-heptaen-11-one] |
| < 10 | CCOc1cc2cc(c1)-c1cnn3cc(OC)c(nc13)OC[C@@H]1C[C@@H](OCCOC)C(=O)N1CCN2 [Example 140, (12R,14S)-4-ethoxy-18-methoxy-12-(2-methoxyethoxy)-16-oxa-7,10,20,21,24-pentaazapentacyclo[15.5.2.1^2,6.0^10,^14.0^20,^23]pentacosa-1(23),2,4,6(25),17(24),18,21-heptaen-11-one] |
| < 10 | COCCO[C@@H]1C[C@H]2COc3nc4c(cnn4cc3OCC3COC3)-c3cc(cc(OC)c3)NCCN2C1=O [Example 144] |
